Source: publication PMC6020026 (Bioorganic & medicinal chemistry letters, 2017)

Test: Cytotoxicity on differentiated THP-1 macrophages
Format: cell-based
Conditions: human
[1] = differentiated THP-1 macrophages

In the case of O=C(/C=C/c1ccc([N+](=O)[O-])o1)c1ccc(C2CCCCC2)cc1 [LabMol-72], the CC50 [1] is reported as 31.1 µM.
With C[C@@H]1[C@H](O)[C@@H](C)/C=C/C=C/C=C/C=C/C=C/C=C/C=C/[C@H](O[C@@H]2O[C@H](C)[C@@H](O)[C@H](N)[C@@H]2O)C[C@@H]2O[C@](O)(C[C@@H](O)C[C@@H](O)[C@H](O)CC[C@@H](O)C[C@@H](O)CC(=O)O[C@H]1C)C[C@H](O)[C@H]2C(=O)O [Amph.B, Amphotericin B, reference compound] the CC50 [1] was 9.8 µM.
O=C(/C=C/c1ccc([N+](=O)[O-])o1)c1ccc(I)cc1 [LabMol-78] gave a CC50 [1] of 49.5 µM.
CC(C)(C)c1ccc(C(=O)/C=C/c2ccc([N+](=O)[O-])s2)cc1 [LabMol-86] gave a CC50 [1] of 8.4 µM.
Work on CSc1ccc(C(=O)/C=C/c2ccc([N+](=O)[O-])o2)cc1 [LabMol-92] yielded a CC50 of 13.1 µM.
